A short description of this data set: Solubility of posaconazole free base. It counts as physicochemical. As to the method:
The provision of a solid composition comprising posaconazole suitable for preparing a solid dosage form for oral administration has heretofore been hampered by the poor solubility and weak basicity of the posaconazole free-base compound. Posaconazole is soluble at low pH. For example, in the environment of the stomach (approximately pH 1) posaconazole free base has a solubility of approximately 0.8 mg/mL. However, when posaconazole dissolved in the stomach fluids reaches the environment of the intestines (typically less acidic than about pH 6.4) a substantial amount of the dissolved posaconazole precipitates, hindering absorption in the intestines. It has been determined that in environments where the pH is about pH 6.4 or more basic the solubility of posaconazole free base is less than about 1 microgram/mL.

SMILES strings stand for the structures. In brackets after ≈: the same amount, converted by molar mass.

By solubility is commonly meant the dissolved amount per volume that the medium holds. In the case of `CC[C@@H]([C@H](C)O)n1ncn(-c2ccc(N3CCN(c4ccc(OC[C@@H]5CO[C@@](Cn6cncn6)(c6ccc(F)cc6F)C5)cc4)CC3)cc2)c1=O` [posaconazole free base, posaconazole], the solubility (pH 6.4, pH about 6.4 or more basic) was < 1 µg/mL and the solubility (simulated gastric fluid, environment of the stomach, approximately pH 1) was ~800 µg/mL (≈ 1140 µM).
